Source: PubChem BioAssay (NCI)
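Briefly, cells in 96-well plates were exposed to five compound concentrations for 48 h, and endpoints were estimated by linear interpolation. GI50 = concentration required for 50% inhibition of growth. TGI: total growth inhibition.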

Columns and labels:
Assay in all cases: NCI tumour cell line growth inhibition, 48 h
SW-620 colon = tested on: SW-620 colon
LOX IMVI melanoma = tested on: LOX IMVI melanoma
CAKI-1 renal = tested on: CAKI-1 renal
M14 melanoma = tested on: M14 melanoma
SF-539 CNS = tested on: SF-539 CNS
IGROV1 ovarian = tested on: IGROV1 ovarian
UACC-62 melanoma = tested on: UACC-62 melanoma
MALME-3M melanoma = tested on: MALME-3M melanoma
NCI-H460 lung = tested on: NCI-H460 lung
SF-268 CNS = tested on: SF-268 CNS
HT29 colon = tested on: HT29 colon
OVCAR-5 ovarian = tested on: OVCAR-5 ovarian
PC-3 prostate = tested on: PC-3 prostate
MOLT-4 leukemia = tested on: MOLT-4 leukemia
DU-145 prostate = tested on: DU-145 prostate
UO-31 renal = tested on: UO-31 renal
MDA-MB-435 = tested on: MDA-MB-435
EKVX NSCLC = tested on: EKVX NSCLC
U251 CNS = tested on: U251 CNS
HL-60(TB) leukemia = tested on: HL-60(TB) leukemia
NCI-H226 lung = tested on: NCI-H226 lung
HOP-92 NSCLC = tested on: HOP-92 NSCLC
NCI-H522 lung = tested on: NCI-H522 lung
HOP-62 NSCLC = tested on: HOP-62 NSCLC
A498 renal = tested on: A498 renal
NCI/ADR-RES ovarian = tested on: NCI/ADR-RES ovarian
SK-MEL-2 melanoma = tested on: SK-MEL-2 melanoma
RPMI-8226 leukemia = tested on: RPMI-8226 leukemia
HCC-2998 colon = tested on: HCC-2998 colon
T-47D breast = tested on: T-47D breast
RXF 393 renal = tested on: RXF 393 renal
CCRF-CEM leukemia = tested on: CCRF-CEM leukemia
SN12C renal = tested on: SN12C renal
SK-MEL-5 melanoma = tested on: SK-MEL-5 melanoma
HCT-15 colon = tested on: HCT-15 colon
MCF7 breast = tested on: MCF7 breast
OVCAR-4 ovarian = tested on: OVCAR-4 ovarian
HS 578T breast = tested on: HS 578T breast
TK-10 renal = tested on: TK-10 renal
786-0 renal = tested on: 786-0 renal
A549 NSCLC = tested on: A549 NSCLC
OVCAR-3 ovarian = tested on: OVCAR-3 ovarian
SK-OV-3 ovarian = tested on: SK-OV-3 ovarian
ACHN renal = tested on: ACHN renal
K-562 leukemia = tested on: K-562 leukemia
BT-549 breast = tested on: BT-549 breast
OVCAR-8 ovarian = tested on: OVCAR-8 ovarian
SR leukemia = tested on: SR leukemia
NCI-H23 lung = tested on: NCI-H23 lung
UACC-257 melanoma = tested on: UACC-257 melanoma
COLO 205 colon = tested on: COLO 205 colon
SK-MEL-28 melanoma = tested on: SK-MEL-28 melanoma
SNB-75 CNS = tested on: SNB-75 CNS
SNB-19 CNS = tested on: SNB-19 CNS
KM12 colon = tested on: KM12 colon
SF-295 CNS = tested on: SF-295 CNS
MDA-MB-231 breast = tested on: MDA-MB-231 breast
HCT-116 colon = tested on: HCT-116 colon

With `COc1ccc2c(c1)CC[C@@H]1[C@@H]2CC[C@]2(C)C=C(/C=C/C(=O)c3ccccc3)C[C@@H]12` the GI50 (SW-620 colon) was 15.4 µM, the TGI (SW-620 colon) was 30.2 µM and the GI50 (LOX IMVI melanoma) was 14.9 µM. For the same compound, the TGI (LOX IMVI melanoma) was 29.9 µM, the GI50 (CAKI-1 renal) was 20.3 µM and the TGI (CAKI-1 renal) was 38.3 µM. The GI50 (M14 melanoma) was 16.6 µM, the TGI (M14 melanoma) was 34.3 µM and the GI50 (SF-539 CNS) was 17.4 µM. It also gave a TGI (SF-539 CNS) of 32.4 µM, a GI50 (IGROV1 ovarian) of 13.3 µM and a TGI (IGROV1 ovarian) of 27.4 µM. The GI50 (UACC-62 melanoma) was 13.8 µM, the TGI (UACC-62 melanoma) was 27.2 µM and the GI50 (MALME-3M melanoma) was 14 µM. For the same compound, the TGI (MALME-3M melanoma) was 30.1 µM, the GI50 (NCI-H460 lung) was 17.2 µM and the TGI (NCI-H460 lung) was 35.4 µM. It also gave a GI50 (SF-268 CNS) of 18.2 µM, a TGI (SF-268 CNS) of 36.6 µM and a GI50 (HT29 colon) of 17 µM. The TGI (HT29 colon) was 35.7 µM, the GI50 (OVCAR-5 ovarian) was 16.5 µM and the TGI (OVCAR-5 ovarian) was 30.7 µM. For the same compound, the GI50 (PC-3 prostate) was 15.4 µM, the TGI (PC-3 prostate) was 30.5 µM and the GI50 (MOLT-4 leukemia) was 16.5 µM. For the same compound, the TGI (MOLT-4 leukemia) was 54.5 µM, the GI50 (DU-145 prostate) was 14.6 µM and the TGI (DU-145 prostate) was 28.4 µM. For the same compound, the GI50 (UO-31 renal) was 15.2 µM, the TGI (UO-31 renal) was 30.1 µM and the GI50 (MDA-MB-435) was 18.4 µM. It also gave a TGI (MDA-MB-435) of 36 µM, a GI50 (EKVX NSCLC) of 17.7 µM and a TGI (EKVX NSCLC) of 32.3 µM. For the same compound, the GI50 (U251 CNS) was 16.6 µM, the TGI (U251 CNS) was 31.3 µM and the GI50 (HL-60(TB) leukemia) was 11.2 µM. The TGI (HL-60(TB) leukemia) was 32.4 µM, the GI50 (NCI-H226 lung) was 17.1 µM and the TGI (NCI-H226 lung) was 33.6 µM. It also gave a GI50 (HOP-92 NSCLC) of 15.5 µM, a TGI (HOP-92 NSCLC) of 29.7 µM and a GI50 (NCI-H522 lung) of 16 µM. For the same compound, the TGI (NCI-H522 lung) was 32.7 µM, the GI50 (HOP-62 NSCLC) was 16.9 µM and the TGI (HOP-62 NSCLC) was 31.2 µM. For the same compound, the GI50 (A498 renal) was 13.3 µM, the TGI (A498 renal) was 26.3 µM and the GI50 (NCI/ADR-RES ovarian) was 17.6 µM. It also gave a TGI (NCI/ADR-RES ovarian) of 35.1 µM, a GI50 (SK-MEL-2 melanoma) of 21 µM and a TGI (SK-MEL-2 melanoma) of 41.5 µM. For the same compound, the GI50 (RPMI-8226 leukemia) was 24.3 µM, the TGI (RPMI-8226 leukemia) was 54.4 µM and the GI50 (HCC-2998 colon) was 16.2 µM. For the same compound, the TGI (HCC-2998 colon) was 31.2 µM, the GI50 (T-47D breast) was 12 µM and the TGI (T-47D breast) was 30.1 µM. It also gave a GI50 (RXF 393 renal) of 17.5 µM, a TGI (RXF 393 renal) of 34.5 µM and a GI50 (CCRF-CEM leukemia) of 32.6 µM. It also gave a TGI (CCRF-CEM leukemia) of 84.7 µM, a GI50 (SN12C renal) of 18.5 µM and a TGI (SN12C renal) of 33.4 µM. It also gave a GI50 (SK-MEL-5 melanoma) of 14 µM, a TGI (SK-MEL-5 melanoma) of 27.2 µM and a GI50 (HCT-15 colon) of 17.4 µM. The TGI (HCT-15 colon) was 34.3 µM, the GI50 (MCF7 breast) was 18.6 µM and the TGI (MCF7 breast) was 36.3 µM. The GI50 (OVCAR-4 ovarian) was 16.2 µM, the TGI (OVCAR-4 ovarian) was 31.6 µM and the GI50 (HS 578T breast) was 19 µM. It also gave a TGI (HS 578T breast) of 49 µM, a GI50 (TK-10 renal) of 21.3 µM and a TGI (TK-10 renal) of 39.3 µM. For the same compound, the GI50 (786-0 renal) was 15.5 µM, the TGI (786-0 renal) was 29.1 µM and the GI50 (A549 NSCLC) was 18.5 µM. It also gave a TGI (A549 NSCLC) of 40.2 µM, a GI50 (OVCAR-3 ovarian) of 16.2 µM and a TGI (OVCAR-3 ovarian) of 31.7 µM. The GI50 (SK-OV-3 ovarian) was 20.8 µM, the TGI (SK-OV-3 ovarian) was 38.9 µM and the GI50 (ACHN renal) was 16.4 µM. For the same compound, the TGI (ACHN renal) was 31.1 µM, the GI50 (K-562 leukemia) was 18.5 µM and the TGI (K-562 leukemia) was 46.4 µM. The GI50 (BT-549 breast) was 17.3 µM, the TGI (BT-549 breast) was 32.7 µM and the GI50 (OVCAR-8 ovarian) was 31.2 µM. For the same compound, the TGI (OVCAR-8 ovarian) was greater than 100 µM, the GI50 (SR leukemia) was 16.6 µM and the TGI (SR leukemia) was 47.4 µM. For the same compound, the GI50 (NCI-H23 lung) was 15.4 µM, the TGI (NCI-H23 lung) was 30.8 µM and the GI50 (UACC-257 melanoma) was 16.2 µM. For the same compound, the TGI (UACC-257 melanoma) was 34.6 µM, the GI50 (COLO 205 colon) was 19.7 µM and the TGI (COLO 205 colon) was 40.4 µM. For the same compound, the GI50 (SK-MEL-28 melanoma) was 16.2 µM, the TGI (SK-MEL-28 melanoma) was 31.7 µM and the GI50 (SNB-75 CNS) was 12.2 µM. It also gave a TGI (SNB-75 CNS) of 25.2 µM, a GI50 (SNB-19 CNS) of 16.8 µM and a TGI (SNB-19 CNS) of 31.5 µM. It also gave a GI50 (KM12 colon) of 17.7 µM, a TGI (KM12 colon) of 39.6 µM and a GI50 (SF-295 CNS) of 17.5 µM. The TGI (SF-295 CNS) was 34 µM, the GI50 (MDA-MB-231 breast) was 17.2 µM and the TGI (MDA-MB-231 breast) was 32.1 µM. The GI50 (HCT-116 colon) was 15.6 µM and the TGI (HCT-116 colon) was 29.1 µM.
